Experiments:
STEME = test: Herbicidal pre-emergence action 2b (doubly sown, 1280 g/ha); type: in vivo, Stellaria media; conditions: doubly sown pots, dosage 1280 g/ha, visual scoring after about 3 weeks
From the text: (§1) [table] b) Seeds of mono- and dicotyledonous weed plants are placed in plastic pots in sandy loam soil (doubly sown with one species each of mono- or dicotyledonous weed plants per pot) and covered with soil. The compounds of the invention, formulated in the form of wettable powders (WP) or as emulsion concentrates (EC), are then applied onto the surface of the covering soil as aqueous suspension or emulsion with addition of 0.5% additive at a water application rate equivalent to 600 litres per hectare. After the treatment, the pots are placed in a greenhouse and kept under good growth conditions for the trial plants. After about 3 weeks, the effect of the preparations is scored visually in comparison with untreated controls as percentages. For example, 100% activity=the plants have died, 0% activity=like control plants. Tables B16 to B21 below show the effects of selected compounds of the general formula (I) according to Tables 1 and 2 on various harmful plants and at an application rate corresponding to 1280 g/ha, which were obtained by the experimental procedure mentioned above.

POAAN [1] = test: as above; type: in vivo, Poa annua; conditions: doubly sown pots, dosage 1280 g/ha, visual scoring after about 3 weeks
From the text: as §1

AMARE [2] = test: as above; type: in vivo, Amaranthus retroflexus; conditions: doubly sown pots, dosage 1280 g/ha, visual scoring after about 3 weeks
From the text: as §1

POAAN [3] = test: Herbicidal post-emergence action 1b (twin sowing, 1280 g/ha); type: in vivo, Poa annua; conditions: dosage 1280 g/ha, visual rating about 3 weeks after treatment
Experimental: [table] b) Seeds of mono- and dicotyledonous weed plants are placed in plastic pots in sandy loam soil (twin sowing with one species each of mono- or dicotyledonous weed plants per pot), covered with soil and cultivated in a greenhouse under controlled growth conditions. 2 to 3 weeks after sowing, the test plants are treated at the one-leaf stage. The compounds of the invention, formulated in the form of wettable powders (WP) or as emulsion concentrates (EC), are applied to the green parts of the plants as aqueous suspension or emulsion with addition of 0.5% additive at a water application rate equivalent to 600 litres per hectare. After the test plants have been kept in the greenhouse under optimum growth conditions for about 3 weeks, the activity of the preparations is rated visually in comparison to untreated controls. For example, 100% activity=the plants have died, 0% activity=like control plants. Tables A16 to A21 below show the effects of selected compounds of the general formula (I) according to Tables 1 and 2 on various harmful plants and at an application rate corresponding to 1280 g/ha, which were obtained by the experimental procedure mentioned above.

AMARE [4] = test: Herbicidal pre-emergence action 2a (greenhouse pots, visual scoring); type: in vivo, Amaranthus retroflexus; conditions: dosage 320 g/ha, visual scoring after about 3 weeks vs untreated controls
From the text: (§2) [table] a) Seeds of monocotyledonous and dicotyledonous weed plants and crop plants are placed in plastic or organic plant pots and covered with soil. The compounds of the invention, formulated in the form of wettable powders (WP) or as emulsion concentrates (EC), are then applied onto the surface of the covering soil as aqueous suspension or emulsion with addition of 0.5% additive at a water application rate of 600 1/ha (converted). After the treatment, the pots are placed in a greenhouse and kept under good growth conditions for the trial plants. After about 3 weeks, the effect of the preparations is scored visually in comparison with untreated controls as percentages. For example, 100% activity=the plants have died, 0% activity=like control plants. Tables B1 to B15 below show the effects of selected compounds of the general formula (I) according to Tables 1 and 2 on various harmful plants and an application rate corresponding to 320 g/ha and/or 80 g/ha, which were obtained by the experimental procedure mentioned above.

SETVI [5] = test: Herbicidal post-emergence action 1a (greenhouse pots, visual rating); type: in vivo, Setaria viridis; conditions: rated visually about 3 weeks after treatment, 100% = plants have died, 0% = like control plants
Experimental: (§3) [table] a) Seeds of monocotyledonous and dicotyledonous weeds and crop plants are placed in sandy loam in plastic or organic plant pots, covered with soil and cultivated in a greenhouse under controlled growth conditions. 2 to 3 weeks after sowing, the test plants are treated at the one-leaf stage. The compounds of the invention, formulated in the form of wettable powders (WP) or as emulsion concentrates (EC), are then sprayed onto the green parts of the plants as aqueous suspension or emulsion with addition of 0.5% additive at a water application rate of 600 1/ha (converted). After the test plants have been kept in the greenhouse under optimum growth conditions for about 3 weeks, the activity of the preparations is rated visually in comparison to untreated controls. For example, 100% activity=the plants have died, 0% activity=like control plants. Tables A1 to A15 below show the effects of selected compounds of the general formula (I) according to Tables 1 and 2 on various harmful plants and an application rate corresponding to 320 g/ha and/or 80 g/ha, which were obtained by the experimental procedure mentioned above.

SETVI [6] = test: Herbicidal pre-emergence action 2a (greenhouse pots, visual scoring); type: in vivo, Setaria viridis; conditions: dosage 320 g/ha, visual scoring after about 3 weeks vs untreated controls
From the text: as §2

VERPE [7] = test: Herbicidal post-emergence action 1a (greenhouse pots, visual rating); type: in vivo, Veronica persica; conditions: dosage 320 g/ha, visual rating about 3 weeks after treatment
Experimental: as §3

LOLRI = test: Herbicidal pre-emergence action 2a (greenhouse pots, visual scoring); type: in vivo, Lolium rigidum; conditions: dosage 320 g/ha, visual scoring after about 3 weeks vs untreated controls
From the text: as §2

VIOTR = test: Herbicidal post-emergence action 1a (greenhouse pots, visual rating); type: in vivo, Viola tricolor; conditions: dosage 320 g/ha, visual rating about 3 weeks after treatment
Experimental: as §3

ECHCG = test: Herbicidal pre-emergence action 2b (doubly sown, 1280 g/ha); type: in vivo, Echinochloa crus-galli; conditions: doubly sown pots, dosage 1280 g/ha, visual scoring after about 3 weeks
From the text: as §1

VERPE [8] = test: Herbicidal pre-emergence action 2a (greenhouse pots, visual scoring); type: in vivo, Veronica persica; conditions: dosage 320 g/ha, visual scoring after about 3 weeks vs untreated controls
From the text: as §2

ALOMY [9] = test: as above; type: in vivo, Alopecurus myosuroides; conditions: dosage 320 g/ha, visual scoring after about 3 weeks
From the text: as §2

AMARE [10] = test: Herbicidal post-emergence action 1a (greenhouse pots, visual rating); type: in vivo, Amaranthus retroflexus; conditions: visual rating about 3 weeks after treatment
Experimental: as §3

POLCO [11] = test: as above; type: in vivo, Polygonum convolvulus; conditions: dosage 320 g/ha, visual rating about 3 weeks after treatment
Experimental: as §3

POLCO [12] = test: Herbicidal pre-emergence action 2a (greenhouse pots, visual scoring); type: in vivo, Polygonum convolvulus; conditions: dosage 320 g/ha, visual scoring after about 3 weeks vs untreated controls
From the text: as §2

AVEFA [13] = test: Herbicidal post-emergence action 1a (greenhouse pots, visual rating); type: in vivo, Avena fatua; conditions: Dosage 80 g/ha; rated visually about 3 weeks after treatment; 100% = plants have died, 0% = like control plants
Experimental: as §3

ALOMY [14] = test: as above; type: in vivo, Alopecurus myosuroides; conditions: Dosage 80 g/ha; rated visually about 3 weeks after treatment; 100% = plants have died, 0% = like control plants
Experimental: as §3

AVEFA [15] = test: Herbicidal pre-emergence action 2a (greenhouse pots, visual scoring); type: in vivo, Avena fatua; conditions: dosage 320 g/ha, visual scoring after about 3 weeks
From the text: as §2

## COC(=O)C(C)Oc1nn(-c2cnccn2)c(-c2ccccc2)c1Br (racemic) [Example I-19]
STEME
  Pre-emergence action at 1280 g/ha against STEME in %: 100%
POAAN [1]
  Pre-emergence action at 1280 g/ha against POAAN in %: 100%
AMARE [2]
  Pre-emergence action at 1280 g/ha against AMARE in %: 100%
POAAN [3]
  Post-emergence action at 1280 g/ha against POAAN in %: 100%

## COC(=O)C(C)Oc1nn(-c2nccnc2F)c(-c2ccc(F)nc2)c1Br (racemic) [Example I-78]
AMARE [4]
  Pre-emergence action against AMARE in %: 80%
SETVI [5]; Dosage 80 g/ha
  Post-emergence action against SETVI in %: 80%
SETVI [5]; Dosage 320 g/ha
  Post-emergence action against SETVI in %: 100%
SETVI [6]
  Pre-emergence action against SETVI in %: 90%
VERPE [7]
  Post-emergence action against VERPE in %: 80%

## COC(=O)[C@@H](C)Oc1nn(-c2cnccn2)c(-c2cccc(F)c2)c1Br [Example 1-20]
LOLRI
  Pre-emergence action against LOLRI in %: 100%
VIOTR
  Post-emergence action against VIOTR in %: 90%

## COC(=O)COc1nn(-c2cnccn2)c(-c2ccc(F)c(F)c2)c1C#N [Example I-23]
AMARE [2]
  Pre-emergence action at 1280 g/ha against AMARE in %: 100%
ECHCG
  Pre-emergence action at 1280 g/ha against ECHCG in %: 100%

## COC(=O)[C@@H](C)Oc1nn(-c2cnccn2)c(-c2ccnnc2)c1C#N [Example I-32]
VERPE [8]
  Pre-emergence action against VERPE in %: 90%

## COC(=O)[C@@H](C)Oc1nn(-c2nccnc2F)c(-c2ccc(F)nc2)c1Br [Example I-80]
ALOMY [9]
  Pre-emergence action against ALOMY in %: 100%
AMARE [4]
  Pre-emergence action against AMARE in %: 100%
AMARE [10]; dosage 80 g/ha
  Post-emergence action against AMARE in %: 80%
AMARE [10]; dosage 320 g/ha
  Post-emergence action against AMARE in %: 80%
POLCO [11]
  Post-emergence action against POLCO in %: 80%
LOLRI
  Pre-emergence action against LOLRI in %: 80%
VERPE [8]
  Pre-emergence action against VERPE in %: 80%

## COC(=O)COc1nn(-c2cnccn2)c(-c2ccc(F)nc2)c1C1CC1 [Example I-84]
AMARE [4]
  Pre-emergence action against AMARE in %: 90%
AMARE [10]; dosage 80 g/ha
  Post-emergence action against AMARE in %: 90%
AMARE [10]; dosage 320 g/ha
  Post-emergence action against AMARE in %: 90%
POLCO [11]
  Post-emergence action against POLCO in %: 80%
VERPE [7]
  Post-emergence action against VERPE in %: 80%

## CC(Oc1nn(-c2cnccn2)c(-c2ccc(F)nc2)c1C1CC1)C(=O)O (stereo not shown) [Example I-86]
ALOMY [9]
  Pre-emergence action against ALOMY in %: 100%
AMARE [4]
  Pre-emergence action against AMARE in %: 80%
POLCO [12]
  Pre-emergence action against POLCO in %: 80%
AVEFA [13]
  Post-emergence action against AVEFA in %: 90%
LOLRI
  Pre-emergence action against LOLRI in %: 100%
ALOMY [14]
  Post-emergence action against ALOMY in %: 90%

## COC(=O)[C@@H](C)Oc1nn(-c2cnccn2)c(-c2ccc(F)nc2)c1C1CC1 [Example I-87]
ALOMY [9]
  Pre-emergence action against ALOMY in %: 100%
AMARE [10]; dosage 80 g/ha
  Post-emergence action against AMARE in %: 80%
AVEFA [13]
  Post-emergence action against AVEFA in %: 90%
AVEFA [15]
  Pre-emergence action against AVEFA in %: 90%
LOLRI
  Pre-emergence action against LOLRI in %: 100%
ALOMY [14]
  Post-emergence action against ALOMY in %: 100%
SETVI [6]
  Pre-emergence action against SETVI in %: 100%
VERPE [8]
  Pre-emergence action against VERPE in %: 80%

— US20230167088A1, “1-PYRAZINYLPYRAZOLYL-3-OXYALKYL ACIDS AND THEIR DERIVATIVES, AND THEIR USE FOR CONTROL OF UNDESIRED PLANT GROWTH” (BAYER AKTIENGESELLSCHAFT, priority 2020, published 2023)
